Where a name gives a salt, the structure may show the parent alone.
Target: T1, Δ^5 -lipoxygenase from rat basophilic leukemia (RBL-1) cells (Rattus norvegicus, UniProt P12527)
T1 construct: endogenous in cells; host or cells: RBL-1 rat basophilic leukemia cells (ATCC CRL 1378); 113,000×g supernatant (cytosolic fraction)
T1 sequence (P12527 1-673): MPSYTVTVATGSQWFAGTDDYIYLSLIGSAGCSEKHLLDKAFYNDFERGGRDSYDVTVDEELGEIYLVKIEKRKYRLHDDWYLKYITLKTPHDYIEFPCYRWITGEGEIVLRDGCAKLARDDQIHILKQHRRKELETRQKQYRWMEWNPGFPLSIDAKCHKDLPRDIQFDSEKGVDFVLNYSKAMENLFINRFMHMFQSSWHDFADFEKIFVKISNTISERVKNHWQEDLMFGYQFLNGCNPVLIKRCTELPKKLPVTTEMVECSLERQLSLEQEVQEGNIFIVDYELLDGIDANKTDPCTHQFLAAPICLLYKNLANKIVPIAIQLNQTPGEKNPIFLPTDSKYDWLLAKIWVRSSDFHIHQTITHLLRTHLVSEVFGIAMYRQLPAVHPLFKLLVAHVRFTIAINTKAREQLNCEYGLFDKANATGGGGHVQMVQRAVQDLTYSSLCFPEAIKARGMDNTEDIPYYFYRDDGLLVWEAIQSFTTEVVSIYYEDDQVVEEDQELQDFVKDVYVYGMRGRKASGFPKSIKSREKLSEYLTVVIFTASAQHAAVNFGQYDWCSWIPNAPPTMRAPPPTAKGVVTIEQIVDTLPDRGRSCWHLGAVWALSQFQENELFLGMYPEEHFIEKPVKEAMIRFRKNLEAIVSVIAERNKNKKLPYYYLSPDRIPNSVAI
Experiment: In vitro test for Δ^5 -lipoxygenase inhibitors (5-LO), RBL-1 cell enzyme, 5-HETE radioimmunoassay
Assay type: biochemical
Settings: RBL-1 5-LO; 10 min preincubation; 8.25 μM arachidonic acid, 10 min at 37° C.; 5-HETE formation; read-out: 5-LO IC-50
Protocol: IN VITRO TEST FOR Δ^5 -LIPOXYGENASE INHIBITORS Compounds of formula I of the invention were tested for their effect on Δ^5 -lipoxygenase from rat basophilic leukemia (RBL-1) cells. Materials. RBL-1 cells (CRL 1378) were obtained from the American TYpe Culture Collection, Rockville, MD. DMEM and glutamine were purchased from Flow Labs, McLean, VA. FBS (Gibco, Grand Island, NY) was heat-inactivated for 1 hour at 56° C. Reagents for protein determinations were obtained from Biorad, Rockville Center, NY. Arachidonic acid (approx. 99%), ATP (disodium slat), BHT, dextran (clinical grade), tetrasodium EDTA, gelatin, gentamycin sulfate solution, reduced glutathione, 1 M HEPES buffer, indomethacin, NaCl, reduced NADpH, Trizma 7.2, and Trizma 8.5 were purchased from Sigma Chemical, St. Louis, MO. CaCl2 dihydrate, Norit A charcoal, and citric acid monohydrate were obtained from Fisher Scientific, Pittsburgh, PA. […] MA. A synthetic 5-HETE standard was supplied by Dr. M. Rosenberger, Dept. of Medicinal Chemistry, Hoffmann-La Roche, Nutley, NJ; [see Corey, E.J., and Hashimoto, S. (1981 ) Tet. Letters, 22, 299-302 for method of preparation]. Ecoscint liquid sointillation fluid was purchased from National Diagnostics, Sommerville, NJ. Isolation of 5-lipoxygenase. […] Approximately 7-9 days after thawing, RBL-1 cells growing in log phase were seeded at a density of 7500 viable cells/ml in a closed 89-liter spinner flask. The cells were stirred constantly for 3-4 days at 37° C. until they reached a density greater than 500,000/ml but less than 800,00/ml. RBL-1 cells were harvested by centrifugation at 4° C. at 1500×g for 10 minutes and were washed 3 times with ice cold 0.05 M tris-HCl, pH 7.2, tetrasodium EDTA (buffer 1). The cells were washed last in 0.05 M Tris-HCl containing 14 μM indomethacin, 1 mM glutathione, 1.5 mM NaCl, and 1 mM tetrasodium EDTA (buffer 2), resuspended at a density of 5×108'/ml (approximately 10 ml) and disrupted manually at 4° C. using a 40 ml Dounce (type A pestle) homogenizer. After 5 minutes of homogenization. 95% cell lysis was confirmed by phase contrast microscopy. The broken cells were diluted 1:2 with buffer 2 and centrifuged at 12,380×g for 10 minutes at 4° C. to pellet cellular debris and granules. The 12,380×g supernatant was centrifuged at 113,000×g for 60 minutes to pellet microsomes. The high-speed supernatant (5.9±0.48 mg/ml protein) was frozen immediately in 1 ml aliquots using a dry ice/acetone bath. The isolated cytosolic fraction was stored in liquid N2 for up to 8 weeks without loss of 5-LO enzyme activity. Lipoxygenase Assay. Compounds Were dissolved at 25 mM concentration in DMSO, then diluted to final concentrations using 95% ethanol. For a typical enzyme assay, the partially purified 5-LO preparation was preincubated with drug or vehicle for 10 minutes at 30° C. The assay tubes were then transferred at a 37° C. water bath where they received arachidonic acid (8.25 μM final concentration) to initiate 5-LO activity. In addition to enzyme and substrate, each reaction tube contained: 12.5 μmoles of Tris-HCl (pH 7.2), 25 nmoles glutathione, 0.35 nmoles indomethacin and 1.25 μmoles of CaCl2 and ATP to yield a total of volume of 250 μl. The enzyme reaction was terminated after 10 minutes by the addition of 75μl […] citric acid to yield pH 3.5. The samples were immediately cooled on ice and neutralized by dilution with 0.05 M Tris-HCl, pH 8.5, which contained 25 mg/1 BHT. A boiled cytosol control was placed at the end of each assay to measure non-enzymatic oxidation of arachidonic acid. The mean specific activity of the 5-LO enzyme preparation was approximately 66.16±14.39 pmol 5-HETE/min/mg protein. Radioimmunoassay for 5-HETE. Under the assay conditions described, the 5-LO catalyzed the conversion of arachidonic acid to 5-HPETE which, as a consequence o peroxidase activity, was reduced to 5-HETE. A specific radioimmunoassay was employed to quantitate the amount (pmoles) of 5-HETE formed during the enzyme reaction. […]

Row | IC50 | SMILES
1 | 10 nM | Cc1c(C)c2c(c(C)c1O)CCC(C)(C#Cc1ccccc1NC(=O)C(F)(F)F)O2 (racemic) [Example 44, rac-2,2,2-Trifluoro-N-{2-[(3,4-dihydro-6-hydroxy-2,5,7,8-tetramethyl-2H-1-benzopyran-2-yl)ethynyl]phenyl}acetamide]
2 | 45 nM | Cc1c(C)c2c(c(C)c1O)CCC(C)(C#Cc1ccc3c(c1)N(C(=O)C(F)(F)F)CCO3)O2 (racemic) [Example 45, rac-3,4-Dihydro-6-[(3,4-dihydro-6-hydroxy-2,5,7,8-tetramethyl2H-1-benzopyran-2-yl)ethynyl]-4(trifluoroacetyl)-2H-1,4-benzoxazine]
3 | 38 nM | CC(=O)Oc1cc(CCC2(C)CCc3c(C)c(O)c(C)c(C)c3O2)ccc1O (racemic) [Example 67, rac-4-[2-(3,4-Dihydro-6-hydroxy-2,5,7,8-tetramethyl-2H-1-benzopyran-2-yl)ethyl]-1,2-benzenediol-2-acetate]
4 | 70 nM | COc1cc(CN)cc(CCC2(C)CCc3c(C)c(O)c(C)c(C)c3O2)c1O (racemic) [Example 68, rac-{2-[5-(Aminomethyl)-2-hydroxy-3-methoxyphenyl]ethyl}-3,4-dihydro-2,5,7,8-tetramethyl-2H-1-benzopyran-6-ol hydrochloride]
5 | 18 nM | Cc1c(C)c2c(c(C)c1O)CCC(C)(C#Cc1ccc3c(c1)NCCO3)O2 (racemic) [Example 47, rac-2-[(3,4-dihydro-2H-1,4-benzoxazine-6-yl)ethynyl]-3,4-dihydro-2,5,7,8-tetramethyl-2H-1-benzopyran-6-ol hydrochloride]

Target: superoxide-dependent, iron-promoted lipid peroxidation of native rat heart cardiac lipid liposomes
Experiment: Lipid peroxidation inhibition (in vitro testing of antiperoxidative agents, ANTI-OX), hypoxanthine-xanthine oxidase-Fe3+.ADP, rat cardiac liposomes, MDA equivalents
Assay type: biochemical
Settings: 60 min, 37° C., screened at 1.0 μM, IC50 determined if inhibition ≥ 50%, read-out: ANTI-OX IC-50
Protocol: The test system employs hypoxanthine-xanthine oxidase (XO)-Fe^3+. ADP as the free radical generator and purified, native rat-heart membrane phosphoglyceride in Hepes-KCl buffer, pH 7.4, as the substrate. Inhibition of superoxide-dependent, iron-promoted lipid peroxidation in the linear reaction phase (after 1 hour of reaction) is measured as the net formation of thiobarbituric acid (TBA)-reactive material. In this system, the TBA-reactive material, isolated by HPLC, is exclusively (>95%) malondialdehyde (MDA), a fragmentation end-product arising from fatty acyl hydroperoxides and cyclic endoperoxides. […]
a) Isolation and purification of Rat Cardiac Lipid
Conscious male Sprague-Dawley rats (~275g) maintained on a normal rodent diet were decapitated. The hearts were rapidly removed and perfused via the aorta with ice-cold 10 mM Hepes buffer, pH 7.4. The aorta and atria were removed, and the ventricular tissue was blotted and weighed (wet weight). The hearts were minced on ice with scissors and finally homogenized (100 mg tissue/ml ice-cold buffer) for 15 seconds (3×5 seconds) with a Tekmar Tissumizer at "maximal" setting. The homogenate was filtered through 4-ply cheesecloth, and homogenate lipids were extracted and purified by a modified Bligh-Dyer procedure (M.D. Marshall and M. Kates, Biochem. Biophys. Acta 260, 558 (1972). The cardiac lipids were stored in CHCl3 under nitrogen at -20° C. […]
b) Preparation of Cardiac Liposomes
Liposomes were prepared from extracted and purified, native rat heart cardiac lipid and were used as substrate for free-radical attack. Cardiac lipid (in CHCl3) was placed in a glass flask and evaporated to dryness under nitrogen at room temperature; the flask was gently rotated during evaporation to yield a thin, dry lipid film. The lipid was taken up in 10 mM Hepes-0.145M KCl, pH 7.4, and was resuspended by indirect an aerobic sonification for 15 minutes at room temperature. The liposome suspension was used immediately. […]
c) preparation of Fe^3+ -ADP Chelate
A chelate was formed in Hepes-KCl buffer between Fe^3+ (1.0mM FeCl3, final concentration) and ADP (10mM, final concentration) at pH 7.4 with stirring at room temperature. Chelation was allowed to proceed for 90 minutes prior to use. The chelate was prepared fresh for each days experiments to ensure iron solubility, effective chelation, and valence state. […]
d) Thiobarbituric Acid Reaction or Determination of Malondialdehvde Equivalents Malondialdehyde (MDA) equivalents were measured as thiobarbituric acid (TBA)-reactive material by the following modification of published methods. The reaction mixture. prepared fresh daily, contained water: BHT ([…] BHT in absolute ethanol): TBA (1.5% TBA in 0.2M Tris, pH 7.0) in the volume ratio 1:1:5. To each 1.0 ml of peroxidation reaction assayed (see below), 0.35 ml reaction mixture was added. After thorough mixing, the tubes were incubated in an 80° C. shaking water bath for 30 minutes. After this time, the tubes were plunged into an ice water bath, and the reaction was immediately stopped with 0.5 ml ice-cold 91% TCA followed by 2.0 ml CHCl3 After centrifugation for 30 minutes at 2000 rpm in a Sorval HL-8 rotor (4° C.), the absorbance of the washed, pink upper phase was read at 532 nm. A standard curve (0.8-40.0 nmol MDA) was run with every assay. For each curve, MDA was freshly prepared by acidification of 1,1,3,3 -tetraethoxypropane with 75% TCA-2.3N HCl (0.15 ml acid mixture with 1.0 ml suitably diluted tetraethoxypropane). Computer-assisted regression analysis of the standard curve was used to quantify the molar amounts of MDA equivalents in the experimental samples. […]
e) Lipid peroxidation Reaction
Cardiac liposomes were subjected to superoxidedependent. iron-promoted peroxidation in glass vessels to avoid the well-known antioxidant effects of many common polymerizing agents used to fabricate plastic labware. […]

Row | IC50 | SMILES
6 | > 1000 nM | CCCc1cc(C#CC2(C)CCc3c(C)c(O)c(C)c(C)c3O2)ccc1O (racemic) [Example 37, rac-3,4-Dihydro-2-[(4-hydroxy-3-propylphenyl)ethynyl]-2,5,7,8-tetramethyl-2H-1-benzopyran-6-ol]

Source: patent US5015661A, “Chromanes and their pharmaceutical compositions and methods” (Hoffmann-La Roche Inc., priority 1989, dated 1991)
